US20220089575A1, “FARNESOID X RECEPTOR AGONISTS AND USES THEREOF” (Metacrine, Inc., priority 2017, published 2022)

Molecular target: T1, hFXR (Homo sapiens, UniProt Q96RI1)
T1 construct: expressed in transfected cells; host or cells: CV-1 cells
T1 sequence (Q96RI1 1-486): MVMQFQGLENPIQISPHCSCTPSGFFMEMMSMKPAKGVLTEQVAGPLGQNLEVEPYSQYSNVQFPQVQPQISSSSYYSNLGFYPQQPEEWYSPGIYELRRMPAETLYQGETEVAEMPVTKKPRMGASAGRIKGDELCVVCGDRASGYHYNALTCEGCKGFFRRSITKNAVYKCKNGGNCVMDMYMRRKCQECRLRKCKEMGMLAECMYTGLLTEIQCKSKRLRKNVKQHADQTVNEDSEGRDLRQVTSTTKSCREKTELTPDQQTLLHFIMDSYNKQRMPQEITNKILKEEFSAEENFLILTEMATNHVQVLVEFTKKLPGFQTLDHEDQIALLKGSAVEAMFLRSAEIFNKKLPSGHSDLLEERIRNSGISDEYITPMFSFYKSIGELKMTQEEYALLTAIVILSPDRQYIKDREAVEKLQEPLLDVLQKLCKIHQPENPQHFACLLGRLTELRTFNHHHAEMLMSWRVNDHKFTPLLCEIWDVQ
T1 sequence (P19793 1-462 partner): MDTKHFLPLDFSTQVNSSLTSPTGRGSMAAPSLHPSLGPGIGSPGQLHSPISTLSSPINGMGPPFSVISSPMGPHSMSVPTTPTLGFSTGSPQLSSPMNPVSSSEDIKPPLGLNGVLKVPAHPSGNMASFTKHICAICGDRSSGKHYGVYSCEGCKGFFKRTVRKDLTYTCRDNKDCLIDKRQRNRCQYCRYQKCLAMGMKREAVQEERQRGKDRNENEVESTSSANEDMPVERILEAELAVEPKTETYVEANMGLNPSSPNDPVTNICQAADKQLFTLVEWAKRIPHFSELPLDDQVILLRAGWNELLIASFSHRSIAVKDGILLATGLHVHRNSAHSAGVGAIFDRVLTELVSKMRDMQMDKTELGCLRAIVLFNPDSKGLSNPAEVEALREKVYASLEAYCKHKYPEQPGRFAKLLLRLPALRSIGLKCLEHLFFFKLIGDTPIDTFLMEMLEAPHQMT
Assay: In Vitro FXR Assay (TK): TK-ECRE-luc reporter in transfected CV-1 cells
Assay type: cell-based
Details: 18 hrs, luminescence, maximum efficacy of <25% of the Fexarmine control classified as '+'
Summary of the method: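 CV-1 cells transiently co-transfected with hFXR, hRXR, TK-ECRE-luc and pCMX-YFP plasmids in charcoal-stripped serum medium. Serially diluted compounds added, cells incubated 18 h at 37° C, then lysed and luminescence read.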

| SMILES | EC50 |
| --- | --- |
| CNC(=O)N[C@H]1CC[C@H](C(=O)N(C[C@H]2CC[C@H](c3ccc(OC)c(C)c3)CC2)c2cccc(-c3cnc(C4CC4)s3)c2)CC1 [Compound 26.36, trans-N-(3-(2-Cyclopropylthiazol-5-yl)phenyl)-N-((trans-4-(4-methoxy-3-methylphenyl)cyclohexyl)methyl)-4-(3-methylureido)cyclohexanecarboxamide] | ≤ 250 nM |
| CNC(=O)N[C@H]1CC[C@H](C(=O)N(C[C@H]2CC[C@H](c3ccc(OC)c(C)c3)CC2)c2cccc(-c3cnn(C4CC4)c3)c2)CC1 [Compound 26.37, trans-N-(3-(1-Cyclopropyl-1H-pyrazol-4-yl)phenyl)-N-((trans-4-(4-methoxy-3-methylphenyl)cyclohexyl)methyl)-4-(3-methylureido)cyclohexanecarboxamide] | ≤ 250 nM |
| COc1ccc([C@H]2CC[C@H](CN(c3cccc(-c4cnc(C5CC5)s4)c3)C(=O)[C@H]3CC[C@H](NC(=O)C(C)(C)O)CC3)CC2)cc1C [Compound 27, trans-N-(3-(2-Cyclopropylthiazol-5-yl)phenyl)-4-(2-hydroxy-2-methylpropanamido)-N-((trans-4-(4-methoxy-3-methylphenyl)cyclohexyl)methyl)cyclohexanecarboxamide] | ≤ 250 nM |
| COc1ccc([C@H]2CC[C@H](CN(c3cccc(-c4cnc(C5CC5)s4)c3)C(=O)[C@H]3CC[C@H](NC(=O)C4COC4)CC3)CC2)cc1C [Compound 27.02, N-(trans-4-((3-(2-Cyclopropylthiazol-5-yl)phenyl)((trans-4-(4-methoxy-3-methylphenyl)cyclohexyl)methyl)carbamoyl)cyclohexyl)oxetane-3-carboxamide] | ≤ 250 nM |
| COc1ccc([C@H]2CC[C@H](CN(c3cccc(-c4cnc(C5CC5)s4)c3)C(=O)[C@H]3CC[C@H](NC(=O)Cn4ccnc4)CC3)CC2)cc1C [Compound 27.03, trans-4-(2-(1H-Imidazol-1-yl)acetamido)-N-(3-(2-cyclopropylthiazol-5-yl)phenyl)-N-((trans-4-(4-methoxy-3-methylphenyl)cyclohexyl)methyl)cyclohexanecarboxamide] | 250 to 1000 nM |
| COc1ccc([C@H]2CC[C@H](CN(c3cccc(-c4cnc(C5CC5)s4)c3)C(=O)[C@H]3CC[C@H](NC(=O)Cc4ncc[nH]4)CC3)CC2)cc1C [Compound 27.04, trans-4-(2-(1H-Imidazol-2-yl)acetamido)-N-(3-(2-cyclopropylthiazol-5-yl)phenyl)-N-((trans-4-(4-methoxy-3-methylphenyl)cyclohexyl)methyl)cyclohexanecarboxamide] | ≤ 250 nM |
| COc1ccc([C@H]2CC[C@H](CN(c3cc(-c4coc(C5CC5)n4)ccn3)C(=O)[C@H]3CC[C@H](NC(=O)C4CC(OC)C4)CC3)CC2)nc1C (stereo partly drawn) [Compound 30.03, trans-N-(4-(2-Cyclopropyloxazol-4-yl)pyridin-2-yl)-N-((trans-4-(5-methoxy-6-methylpyridin-2-yl)cyclohexyl)methyl)-4-(3-methoxycyclobutanecarboxamido) cyclohexanecarboxamide] | ≤ 250 nM |
| COc1ccc([C@H]2CC[C@H](CN(c3cc(-c4coc(C5CC5)n4)ccn3)C(=O)[C@H]3CC[C@H](CNC(=O)C4CC(N(C)C)C4)CC3)CC2)nc1C (stereo partly drawn) [Compound 30.05, trans-N-(4-(2-Cyclopropyloxazol-4-yl)pyridin-2-yl)-4-((3-(dimethylamino)cyclobutanecarboxamido)methyl)-N-((trans-4-(5-methoxy-6-methylpyridin-2-yl)cyclohexyl)methyl) cyclohexanecarboxamide] | ≥ 1000 nM |

Results, then the compound that gave them:

| EC50 | SMILES |
| --- | --- |
| ≤ 250 nM | COc1ccc([C@H]2CC[C@H](CN(c3cccc(-c4cnc(C5CC5)s4)c3)C(=O)[C@H]3CC[C@H](NC(=O)C(C)O)CC3)CC2)cc1C (stereo partly drawn) [Compound 27.01, trans-N-(3-(2-Cyclopropylthiazol-5-yl)phenyl)-4-(2-hydroxypropanamido)-N-((trans-4-(4-methoxy-3-methylphenyl)cyclohexyl)methyl) cyclohexanecarboxamide] |
| ≥ 1000 nM | COc1ccc([C@H]2CC[C@H](CN(c3cccc(-c4cnc(C5CC5)s4)c3)C(=O)[C@H]3CC[C@H](NC(=O)C4CN(C)C4)CC3)CC2)cc1C [Compound 27.05, N-(trans-4-((3-(2-Cyclopropylthiazol-5-yl)phenyl)((trans-4-(4-methoxy-3-methylphenyl)cyclohexyl)methyl)carbamoyl)cyclohexyl)-1-methylazetidine-3-carboxamide] |
| ≥ 1000 nM | COc1ccc([C@H]2CC[C@H](CN(c3cccc(-c4cnc(C5CC5)s4)c3)C(=O)[C@H]3CC[C@H](NC(=O)C4CNC4)CC3)CC2)cc1C [Compound 27.06, N-(trans-4-((3-(2-Cyclopropylthiazol-5-yl)phenyl)((trans-4-(4-methoxy-3-methylphenyl)cyclohexyl)methyl)carbamoyl)cyclohexyl)azetidine-3-carboxamide] |
| ≤ 250 nM | COc1ccc([C@H]2CC[C@H](CN(c3cccc(-c4cnc(C5CC5)s4)c3)C(=O)[C@H]3CC[C@H](NC(=O)OCCO)CC3)CC2)cc1C [Compound 28, 2-Hydroxyethyl (trans-4-((3-(2-cyclopropylthiazol-5-yl)phenyl)((trans-4-(4-methoxy-3-methylphenyl)cyclohexyl)methyl)carbamoyl)cyclohexyl)carbamate] |
| ≥ 1000 nM | COc1ccc([C@H]2CC[C@H](CN(c3cccc(-c4cnn(C(C)C)c4)c3)C(=O)[C@H]3CC[C@H](NCC(=O)O)CC3)CC2)cc1C [Compound 29, 2-((trans-4-((3-(1-Isopropyl-1H-pyrazol-4-yl)phenyl)((trans-4-(4-methoxy-3-methylphenyl)cyclohexyl)methyl)carbamoyl)cyclohexyl)amino)acetic Acid] |
| ≤ 250 nM | COc1ccc([C@H]2CC[C@H](CN(c3cccc(-c4cnn(C5CC5)c4)c3)C(=O)[C@H]3CC[C@H](NC(=O)C4CC(OC)C4)CC3)CC2)cc1C (stereo partly drawn) [Compound 30, trans-N-(3-(1-Cyclopropyl-1H-pyrazol-4-yl)phenyl)-N-((trans-4-(4-methoxy-3-methylphenyl)cyclohexyl)methyl)-4-(3-methoxycyclobutanecarboxamido)cyclohexanecarboxamide] |
| ≤ 250 nM | COc1ccc([C@H]2CC[C@H](CN(c3cccc(-c4cnn(C5CC5)c4)c3)C(=O)[C@H]3CC[C@H](NC(=O)C4CCC4)CC3)CC2)cc1C [Compound 30.01, trans-4-(Cyclobutanecarboxamido)-N-(3-(1-cyclopropyl-1H-pyrazol-4-yl)phenyl)-N-((trans-4-(4-methoxy-3-methylphenyl)cyclohexyl)methyl) cyclohexanecarboxamide] |
| ≤ 250 nM | COc1ccc([C@H]2CC[C@H](CN(c3cc(-c4coc(C5CC5)n4)ccn3)C(=O)[C@H]3CC[C@H](NC(=O)C4CCC4)CC3)CC2)nc1C [Compound 30.02, trans-4-(cyclobutanecarboxamido)-trans-(4-(2-cyclopropyloxazol-4-yl)pyridine-2-yl)-N-((trans-4-(5-methoxy-6-methylpyridin-2-yl)cyclohexyl)methyl) cyclohexanecarboxamide] |
| ≤ 250 nM | COc1ccc([C@H]2CC[C@H](CN(c3cc(-c4coc(C5CC5)n4)ccn3)C(=O)[C@H]3CC[C@H](CNC(=O)C4CCC4)CC3)CC2)nc1C [Compound 30.04, trans-4-(Cyclobutanecarboxamidomethyl)-N-(4-(2-cyclopropyloxazol-4-yl)pyridin-2-yl)-N-((trans-4-(5-methoxy-6-methylpyridin-2-yl)cyclohexyl)methyl) cyclohexanecarboxamide] |
